Patent publication US10330683B2, “Mutant smoothened and methods of using the same” (Genentech, Inc., priority 2015, dated 2019)
Entries after “also recorded” stand apart in the source; their conditions may differ.

Experiments:
[1] = tested on: PPT CGNPs infected with SMO-WT and Cre; experiment: methyl-[3H]-thymidine incorporation (proliferation) of virally transduced PPT CGNPs after removal of SHH; assay type: cell-based, mice
From the text: (§1) It has previously been noted that Hh-driven tumor cells rapidly lose their Hh pathway dependence during culturing (Sasai et al., 2006). However, CGNPs proliferate in vivo in a Hh dependent manner and maintain their Hh pathway dependence in culture for a finite period (Wechsler-Reya and Scott, 1999). CGNPs isolated from Ptch1loxp/loxp Tp53loxp/loxp Rosa26LSL-tdTomato (PPT) pups were infected with lentiviral constructs expressing a SMO variant together with an enhanced green fluorescent protein (eGFP)-Cre fusion protein (FIG. 12C). The Cre recombinase induces loss of Ptch1 and thus ensures that only transduced CGNPs can proliferate in the absence of exogenous Sonic hedgehog ligand (SHH; FIG. 11D). […] Proliferation by methyl-[3H]-thymidine incorporation was monitored, while Cre-dependent tandem dimer (td) Tomato expression enabled visualization and quantification of infected cells. This system also enabled better model patient genetics because most of the SMO mutations were identified in tumors that harbored TP53 mutations and were driven by loss of PTCH1. […] It was confirmed that CGNPs were infected at similar frequencies by fluorescence-activated cell sorting (FACS) analysis for Cre-dependent tdTomato reporter expression, and that the SMO variants were expressed at equivalent levels by quantitative reverse transcription (qRT) PCR.
(§2) Cerebella from post-natal day 5-7 Ptch1^loxp/loxp Rosa26^LSLtdTomato Tp53^loxp/loxp mice were dissociated in 0.05% Trypsin for 10 min at 37° C. Cells were collected by centrifugation at 514×g for 10 min at 4° C., resuspended in CGNP media (Neurobasal medium (Life Technologies) containing 1×B27 (without vitamin A; Life Technologies), 0.45% glucose (Sigma Aldrich), 25 mM KCl, 0.4% bovine serum albumin (Sigma Aldrich), 2 mM glutamine, 100 U/ml Penicillin (Life Technologies), 100 μg/ml Streptomycin (Life Technologies), 200 ng/ml octylated recombinant SHH) and filtered through a 0.45 μm filter (Falcon). Cells were plated in poly-D-lysine coated 6-well plates (Corning) at 5×10E5 cells/well and infected with lentivirus at a multiplicity of infection (MOI) of 1. After 24 hr, cells were harvested by trypsinization, collected in CGNP media and replated for downstream applications.
(§3) To examine the effects of HPIs on proliferation, virally transduced CGNPs were plated in poly-D-lysine-coated 96-well plates (Corning) at 25,000 cells/well in CGNP media without SHH. […] After 24 hr, cells were pulsed with 1 μCi/ml methyl-[^3H]-thymidine (Amersham/GE Healthcare) and cultured for an additional 16-24 hr. Cells were harvested onto 96-well filter plates (Perkin Elmer) using a Filtermate Cell Harvester (Perkin Elmer), and incorporated radioactivity was quantified by liquid scintillation spectrophotometry on a TopCount NXT (PerkinElmer).

[2] = tested on: PPT CGNPs expressing vismodegib-resistant SMO mutants; experiment: as above; assay type: cell-based, mice; conditions: 1 μM JQ1; FIG. 16B
From the text: as §1, §2, §3

[3] = tested on: SMO-S387N; conditions: cited from earlier work
[4] = tested on: SMO-D384N; conditions: cited from earlier work
[5] = tested on: SMO-L221R; conditions: cited from earlier work
[6] = tested on: SMO-N219D; conditions: cited from earlier work
[7] = target: T1, SMO-I408V (Homo sapiens, UniProt Q99835, I408V); experiment: [3H]-vismodegib binding to HEK-293 cells transfected with SMO constructs; conditions: 5 nM [3H]-vismodegib, cell surface levels similar to SMO-WT, FIG. 12B
T1 construct: expressed in transfected cells; host or cells: HEK-293 cells
Description: (§4) SMO mutants were generated in pRK5-SMO vectors as described (Dijkgraaf et al., 2011; Yauch et al., 2009) and were either utilized in Gli-luciferase reporter assays as described (Dijkgraaf et al., 2011) or cloned into lentiviral vectors for transduction of primary CGNP cultures. Proliferation was assayed using methyl-[3H]-thymidine incorporation (Kool et al., 2014).
(§5) 2×10E6 HEK-293 cells were seeded into 10-cm plates and transfected 16 hours later with 3 μg of either empty vector or SMO expression construct using GeneJuice (Novagen). Cells were harvested 40 hours later in PBS with 1 mM EDTA and fixed in PBS with 4% PFA for 10 minutes at room temperature (RT), after which they were washed 3× in PBS with 1 mM EDTA and plated into 96-well plates at 100,000 cells per well. […] of MicroScint fluid (Perkin Elmer) was added per well and counts per minute were assessed using a PerkinElmer TopCount NXT. All samples were analyzed in triplicate.

[8] = target: T2, SMO-A459V (Homo sapiens, UniProt Q99835, A459V); experiment: Gli-luciferase based Hh reporter assay in C3H10T½ cells transfected with SMO constructs; assay type: cell-based, mouse; conditions: GLI1 luciferase reporter, FIGS. 5A-5C
T2 construct: expressed in transfected cells; host or cells: C3H10T½ cells (mouse)
Description: as §4
(§6) C3H10T½ cells (ATCC) were seeded into six-well plates at 1.75×10E5 cells/well in DMEM High Glucose with 4 mM glutamine, 10 mM Hepes pH 7.2 and 10% FBS. After 16 h cells were transfected with 400 ng of expression construct, 400 ng of 9×-Gli-BS and 200 ng of pRL-TK per well using GeneJuice Transfection Reagent (Novagen). For the PTCH1 inhibition experiments, cells were transfected with 200 ng SMO expression construct and an additional 200 ng of DNA containing varying ratios of PTCH1 to empty vector. Six hours later, cells from one well were trypsinized and redistributed over four wells of a 12-well plate. After 16 hours the FBS content of the culture medium was reduced to 0.5% to induce formation of primary cilia, and small molecule Hh inhibitors were added at indicated concentrations. Firefly luciferase activity was determined 24 hours later with the Dual-Glo Luciferase Assay System (Promega) and read using a Wallac EnVision plate reader (Perkin Elmer). […]

[9] = tested on: SMO-E518K and E518A; conditions: cited from earlier work
[10] = tested on: medulloblastoma; conditions: initial response; no durable response, relapse of the tumor; cited from earlier work
[11] = tested on: metastatic and locally advanced BCC; conditions: cited from earlier work
[12] = tested on: activating SMO mutants; experiment: [3H]-vismodegib binding to HEK-293 cells transfected with SMO constructs; set-up: species or system human; conditions: all activating mutants tested; cell surface expression comparable to SMO-WT; FIG. 15C
Description: as §4, §5

[13] = target: SMO-L515A (Homo sapiens, UniProt Q99835, L515A); conditions: L515A expressed, activating; 1 mM vismodegib; cited from earlier work
[14] = tested on: SMO-A459V expressing CGNPs; experiment: methyl-[3H]-thymidine incorporation (proliferation) of virally transduced PPT CGNPs after removal of SHH; assay type: cell-based, mice; conditions: high concentrations of vismodegib, FIGS. 14D and 15E
From the text: (§7) It has previously been noted that Hh-driven tumor cells rapidly lose their Hh pathway dependence during culturing (Sasai et al., 2006). However, CGNPs proliferate in vivo in a Hh dependent manner and maintain their Hh pathway dependence in culture for a finite period (Wechsler-Reya and Scott, 1999). CGNPs isolated from Ptch1loxp/loxp Tp53loxp/loxp Rosa26LSL-tdTomato (PPT) pups were infected with lentiviral constructs expressing a SMO variant together with an enhanced green fluorescent protein (eGFP)-Cre fusion protein (FIG. 12C). The Cre recombinase induces loss of Ptch1 and thus ensures that only transduced CGNPs can proliferate in the absence of exogenous Sonic hedgehog ligand (SHH; FIG. 11D). […] Proliferation by methyl-[3H]-thymidine incorporation was monitored, while Cre-dependent tandem dimer (td) Tomato expression enabled visualization and quantification of infected cells.
as §2, with “After 24 hr, cells were harvested by trypsinization, collected in CGNP media and replated for downstream applications.” left out
(§8) To examine the effects of HPIs on proliferation, virally transduced CGNPs were plated in poly-D-lysine-coated 96-well plates (Corning) at 25,000 cells/well in CGNP media without SHH. […] Cells were harvested onto 96-well filter plates (Perkin Elmer) using a Filtermate Cell Harvester (Perkin Elmer), and incorporated radioactivity was quantified by liquid scintillation spectrophotometry on a TopCount NXT (PerkinElmer).

[15] = tested on: SMOW535L expressing CGNPs; experiment: as above; assay type: cell-based, mice; conditions: high concentrations of vismodegib, FIGS. 14D and 15E
From the text: as §7
as §2, with “After 24 hr, cells were harvested by trypsinization, collected in CGNP media and replated for downstream applications.” left out
as §8

[16] = tested on: SMO-T241M expressing CGNPs; experiment: as above; assay type: cell-based, mice; conditions: high concentrations of vismodegib, FIGS. 14D and 15E
From the text: as §7
as §2, with “After 24 hr, cells were harvested by trypsinization, collected in CGNP media and replated for downstream applications.” left out
as §8

[17] = target: SMO-D473H (Homo sapiens, UniProt Q99835, D473H); conditions: cited from earlier work
[18] = tested on: PPT CGNPs infected with SMO DBP mutations; experiment: methyl-[3H]-thymidine incorporation (proliferation) of virally transduced PPT CGNPs after removal of SHH; assay type: cell-based, mice; conditions: all DBP mutations; high levels of vismodegib (>1 μM); FIG. 12D
From the text: as §1, §2, §3

[19] = tested on: PPT CGNPs infected with SMO-C469Y; experiment: as above; assay type: cell-based, mice; conditions: 5 μM vismodegib
From the text: as §1, §2, §3

[20] = target: T3, SMO-S387N (Homo sapiens, UniProt Q99835, S387N); experiment: Gli-luciferase based Hh reporter assay in C3H10T½ cells transfected with SMO constructs; assay type: cell-based; conditions: 1 μM vismodegib, FIG. 13C
T3 construct: expressed in transfected cells; host or cells: C3H10T½ cells (mouse)
Description: as §4
as §6, with “Elmer). Values were divided by renilla luciferase activities to normalize for transfection efficiency. Individual experiments were carried out in duplicate or triplicate and repeated at least once. Dose response data were fit to a 4-parameter equation in GraphPad Prism:” for “Elmer).”
(§9) The top and bottom (B) values were constrained to be […] for each sample. ‘H’ is the Hill Slope.

[21] = target: T4, SMO-D384N (Homo sapiens, UniProt Q99835, D384N); experiment: as above; assay type: cell-based; conditions: 1 μM vismodegib, FIG. 13C
T4 construct: expressed in transfected cells; host or cells: C3H10T½ cells (mouse)
Description: as §4
as §6, with “Elmer). Values were divided by renilla luciferase activities to normalize for transfection efficiency. Individual experiments were carried out in duplicate or triplicate and repeated at least once. Dose response data were fit to a 4-parameter equation in GraphPad Prism:” for “Elmer).”
as §9

[22] = target: T5, SMO-N219D (Homo sapiens, UniProt Q99835, N219D); experiment: as above; assay type: cell-based; conditions: 1 μM vismodegib, FIG. 13C
T5 construct: expressed in transfected cells; host or cells: C3H10T½ cells (mouse)
Description: as §4
as §6, with “Elmer). Values were divided by renilla luciferase activities to normalize for transfection efficiency. Individual experiments were carried out in duplicate or triplicate and repeated at least once. Dose response data were fit to a 4-parameter equation in GraphPad Prism:” for “Elmer).”
as §9

[23] = tested on: SMO-D473 mutants (all aa except P); conditions: cited from earlier work

T4 sequence (Q99835 28-787 D384N): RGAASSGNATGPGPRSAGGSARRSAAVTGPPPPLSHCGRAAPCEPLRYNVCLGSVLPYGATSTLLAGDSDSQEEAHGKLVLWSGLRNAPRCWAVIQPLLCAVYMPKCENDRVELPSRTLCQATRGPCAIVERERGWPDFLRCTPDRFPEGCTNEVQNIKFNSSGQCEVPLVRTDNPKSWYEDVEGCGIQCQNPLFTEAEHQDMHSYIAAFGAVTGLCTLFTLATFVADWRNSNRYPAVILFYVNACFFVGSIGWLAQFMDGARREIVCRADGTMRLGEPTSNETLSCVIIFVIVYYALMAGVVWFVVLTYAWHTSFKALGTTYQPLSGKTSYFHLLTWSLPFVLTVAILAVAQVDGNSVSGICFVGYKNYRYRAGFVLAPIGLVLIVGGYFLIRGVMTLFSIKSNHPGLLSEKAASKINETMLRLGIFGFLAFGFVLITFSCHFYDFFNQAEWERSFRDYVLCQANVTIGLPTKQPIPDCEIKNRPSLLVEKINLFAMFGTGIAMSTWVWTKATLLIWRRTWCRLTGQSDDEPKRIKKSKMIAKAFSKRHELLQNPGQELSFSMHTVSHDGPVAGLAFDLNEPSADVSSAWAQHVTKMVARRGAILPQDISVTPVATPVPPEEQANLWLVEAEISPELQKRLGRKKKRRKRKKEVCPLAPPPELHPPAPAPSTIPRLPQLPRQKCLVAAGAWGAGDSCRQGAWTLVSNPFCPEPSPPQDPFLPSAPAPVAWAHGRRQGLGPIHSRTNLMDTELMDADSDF
T3 sequence (Q99835 28-787 S387N): as the sequence (Q99835 28-787 D384N) above, with N357D, S360N counted along it
T5 sequence (Q99835 28-787 N219D): as the sequence (Q99835 28-787 D384N) above, with N192D, N357D counted along it
T1 sequence (Q99835 28-787 I408V): as the sequence (Q99835 28-787 D384N) above, with N357D, I381V counted along it
T2 sequence (Q99835 28-787 A459V): as the sequence (Q99835 28-787 D384N) above, with N357D, A432V counted along it
Sequence of SMO-L515A (Q99835 28-787 L515A): as the sequence (Q99835 28-787 D384N) above, with N357D, L488A counted along it
Sequence of SMO-D473H (Q99835 28-787 D473H): as the sequence (Q99835 28-787 D384N) above, with N357D, D446H counted along it

Q: Which “residual proliferation in SMO-WT” value ([1]; 1 μM JQ1 compared with 1 μM vismodegib, FIG. 16B) does the source give for Cc1sc2c(c1C)C(c1ccc(Cl)cc1)=N[C@@H](CC(=O)OC(C)(C)C)c1nnc(C)n1-2 [JQ1] here?
A: less residual proliferation

Q: And the “proliferation of PPT CGNPs expressing vismodegib-resistant SMO mutants” value [2]?
A: reduced proliferation

Q: Which results are given for Cc1c(C(=O)Nc2ccc(N3C[C@@H](C)O[C@@H](C)C3)nc2)cccc1-c1ccc(OC(F)(F)F)cc1 [LDE-225]?
A: sensitivity to LDE-225 [3]: S387N reduced; sensitivity to LDE-225 [4]: D384N reduced; sensitivity to LDE-225 [5]: L221R reduced; sensitivity to LDE-225 [6]: N219D reduced

Q: For CS(=O)(=O)c1ccc(C(=O)Nc2ccc(Cl)c(-c3ccccn3)c2)c(Cl)c1 [vismodegib], which “binding of [3H]-labeled vismodegib” value [7] is on record?
A: impaired

Q: And the sensitivity to vismodegib [8]?
A: decreased sensitivity

Q: And the sensitivity to vismodegib [9]?
A: reduced sensitivity to

Q: And the “response of a patient to treatment” value [10]?
A: dramatic response

Q: And the “clinical response of BCC patients treated with vismodegib” value ([11]; majority of BCC patients, complete and partial responses)?
A: clinical benefit

Q: What about the “advanced BCC patients that develop resistance to vismodegib” value ([11]; within the first year of treatment, preliminary estimate) of the same compound?
A: up to 20%

Q: What about the vismodegib binding [12] of the same compound?
A: impaired

Q: And the inhibition by vismodegib [13]?
A: activating, sensitive

Q: And the “proliferation in the presence of vismodegib” value (“proliferation in the presence” for short) [14]?
A: continued to proliferate

Q: And the “proliferation in the presence” value [15]?
A: continued to proliferate

Q: And the “proliferation in the presence” value [16]?
A: continued to proliferate

Q: What about the “drug binding in vitro” value [17] of the same compound?
A: abrogate drug binding

Q: What about the “proliferation in the presence” value [18] of the same compound?
A: continuing to proliferate

Q: What about the IC50 ([1]; Mus musculus, SMO-WT and Cre, FIG. 12D) of the same compound?
A: ~0.022 µM

Q: And the “vismodegib concentration at which proliferation was maximally inhibited” value ([1]; SMO-WT and Cre)?
A: 100 nM

Q: What about the “proliferation in the presence” value [19] of the same compound?
A: continued to proliferate at near untreated levels

Q: And the “sensitivity to vismodegib compared to SMO-WT” value [20]?
A: reduced sensitivity; also recorded: S387N reduced

Q: And the “sensitivity to vismodegib compared to SMO-WT” value [21]?
A: reduced sensitivity; also recorded: D384N reduced

Q: What about the “sensitivity to vismodegib compared to SMO-WT” value [22] of the same compound?
A: reduced sensitivity; also recorded: N219D reduced

Q: What about the sensitivity to vismodegib [23] of the same compound?
A: reduce sensitivity to
